In US20020106348A1, “Cancer therapeutics involving the administration of 2-methoxyestradiol and an agent that increases intracellular superoxide anion” (priority 2000, published 2002):
Where two headings read alike, the source gives them in different places.

Experiments:
ML-1 [1] = test: MTT assay, ML-1 leukemia cells; type: cell-based; settings: Homo sapiens, ML1, ML-1 (wt p53)
CEM = test: MTT assay, CEM leukemia cells; type: cell-based; settings: Homo sapiens, CCRF-CEM, CEM (mutant p53)
Raji = test: MTT assay, Raji cells; type: cell-based; settings: Homo sapiens, Raji (mutant p53)
K562 = test: MTT assay, K562 cells; type: cell-based; settings: Homo sapiens, K562 (no p53)
HL-60 [2] = test: MTT assay, HL-60 cells; type: cell-based; settings: Homo sapiens, HL-60 (no p53)
normal lymphocytes [3] = test: MTT assay, normal lymphocytes from healthy donors; type: cell-based, human; settings: normal lymphocytes from 8 healthy donors; MTT 72 h / 96 h
ALL cells = test: MTT assay, primary ALL cells; type: cell-based, human; settings: 30 μM, 2 patients
ML-1 [4] = test: Apoptosis / nucleosomal DNA fragmentation in ML-1 cells; type: cell-based, human; settings: 1 μM; ML-1 (wt p53)
HL-60 [5] = test: Apoptosis / nucleosomal DNA fragmentation in HL-60 cells; type: cell-based, human
[6] = system: leukemia cells from a CML (chronic myelogenous leukemia) patient in relapsed blast crisis; test: Induction of apoptosis in primary leukemia cells from a CML patient; type: cell-based, human; settings: in vitro
normal lymphocytes [7] = test: DNA fragmentation in normal lymphocytes; type: cell-based, human; settings: 0-30 μM, additional 3 days
CuZnSOD (SOD1) mRNA = test: cDNA microarray assay of gene expression; type: cell-based, human; settings: 5 h after 2-ME incubation; normalized by three internal standards
Source text: The Atlas™ Human cDNA Expression Array I and the Atlas™ Human Cancer cDNA Expression Array (ClonTech Laboratories, Inc.) were used in this study. One microgram of mRNA isolated from the control or drug-treated cells was converted to radioactive cDNA by reverse transcription in the presence of [α-^32P]-dATP. The ^32P-labeled cDNA was then denatured and hybridized to the eDNA expression arrays according to the procedures recommended by the manufacturer. The radioactivity on the membranes was quantified by a phosphoimager.

SOD1 protein = test: Immunoblot of SOD1 protein in ML-1 cells; type: cell-based, human; settings: ML-1 cells at 10 h
CLL cells [8] = test: Cellular O2^- by hydroethidine flow cytometry, CLL cells; type: cell-based, human
Procedure: The method using hydroethidine to detect O2^− in tissue sections was adapted for quantitation of intracellular O2^− by flow cytometry analysis. This assay is based on the unique chemical properties of hydroethidine, a weak blue fluorescent dye which is selectively converted by O2^− to ethidium with a bright red fluorescence. The control and drug-treated cells (1.5×10^6/sample) were incubated with hydroethidine (20 ng/ml) for 60 min, washed twice with 3 ml PBS, resuspended in 2 ml PBS, and then analyzed within 1 h by flow cytometry, using the red laser channel.

ML-1 [9] = test: H2O2 generation in cell culture, ML-1 cells; type: cell-based, human
human CuZnSOD = biological target: T1, human CuZnSOD (Homo sapiens, UniProt P00441); test: In vitro SOD activity assay (xanthine/xanthine oxidase, XTT), human CuZnSOD; type: biochemical; settings: purified enzyme; read-out: IC50, inhibition of human CuZnSOD
T1 construct: purchased Sigma

E. coli MnSOD = E. coli MnSOD (Escherichia coli, UniProt P00448); test: In vitro SOD activity assay, E. coli MnSOD; type: biochemical; settings: purified enzyme; read-out: IC50, inhibition of E. coli MnSOD
Procedure: A spectrophotometric assay was used to determine the effect of 2-methoxyestradiol (2-ME) on SOD activity in vitro with purified enzymes (bovine CuZnSOD from Boehringer Mannheim; human CuZnSOD and E. coli MnSOD from Sigma). The reactions contained 2.5 ml of 50 mM Na2CO3, 0.1 ml of 3 mM xanthine, 0.1 ml of 3 mM EDTA, and 0.1 ml of 0.8 mM XTT (3′-(1-[phenylamino-carbonyl]3,4-tetrazolium)-bis(4-methoxy-6-nitro)benzene-sulfonic acid hydrate), and the indicated concentrations of SOD and 2-ME. Xanthine oxidase (0.1 ml, 64 mU/ml) was added to start the reaction. After incubation at 24° C. for 30 min, the absorbance at 470 nm was measured. The relative activity (RA) of SOD was calculated by the following formula: […]
where a is the absorbance of reaction without SOD, b is the absorbance of reaction with SOD but without 2-ME, c is the absorbance of reaction with SOD in the presence of 2-ME. All values were subtracted by the background reading of the blank. In separate experiments using nitro blue tetrazolium or cytochrome c as substrates for SOD assay, 2-ME and DMSO (as a solvent for 2-ME) interfered with the calorimetric reaction. These artifacts preclude the use of NBT or cytochrome c as the substrates for measuring the effect of 2-ME on SOD activity. Neither 2-ME nor DMSO affect the calorimetric reaction of XTT.

SOD = SOD inhibition in vitro (restated, enzyme not specified); type: biochemical; settings: restated in discussion
xanthine oxidase = test: Effect on xanthine oxidase; type: biochemical; settings: 1-100 μM
human DNA polymerase α = human DNA polymerase α (Homo sapiens, UniProt P09884); test: Effect on DNA polymerase α; type: biochemical; settings: 1-100 μM
leukemia cell lines = test: Apoptosis induction in leukemia cell lines; type: cell-based, human; settings: leukemia cell lines tested
[10] = system: leukemia cell lines, primary CLL cells, and normal lymphocytes; test: Cellular accumulation of [3H]2-ME; type: in vitro ADME, human; settings: 1 μM [3H]2-ME, 5-h incubation
Procedure: (§1) To determine cellular uptake of 2-ME, cells were incubated with 1 μM [^3H]2-ME (0.5 μCi/ml) for 5 h and when washed twice with cold PBS. Radioactivity associated with the cell pellets or the culture medium was quantitated by liquid scintillation counting. 2-ME concentrations were calculated based on the specific radioactivity of [^3H]2-ME, cell number, and the mean cell volume as measured by a Coulter Counter equipped with a 256-Channelyzer. HPLC was used to analyze potential cellular metabolites of 2-ME. Cells were incubated with [^3H]2-ME (0.5 μCi/ml) for 5 h, washed twice with PBS, and then extracted with 50% methanol. The extracts were analyzed by HPLC equipped with a UV detector (284 nm) and an on-line liquid scintillation counter, using a μBondapak C18 reversed-phase column and the following running conditions: 1 ml/min; 0-5 min, 100% buffer A (water:acetontrile:acetic acid=59:40:1); 5-17 min, a linear gradient of 0->100% buffer B (water:acetontrile:acetic acid=39:60:1); 17-30 min, 100% B.

[11] = system: ML-1, HL-60 and CLL cells; test: HPLC analysis of cellular metabolites of [3H]2-ME; type: in vitro ADME, human; settings: [3H]2-ME 0.5 μCi/ml, 5 h
Procedure: as §1

CLL cells [12] = system: CLL cells

Chain of E. coli MnSOD (P00448 whole entry): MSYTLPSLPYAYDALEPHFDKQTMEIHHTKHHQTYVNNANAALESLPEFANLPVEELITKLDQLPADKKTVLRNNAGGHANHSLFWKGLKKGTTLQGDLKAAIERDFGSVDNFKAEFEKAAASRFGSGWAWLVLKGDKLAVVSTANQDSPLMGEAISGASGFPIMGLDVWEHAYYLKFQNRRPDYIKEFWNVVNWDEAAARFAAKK
Chain of human DNA polymerase α (P09884 whole entry): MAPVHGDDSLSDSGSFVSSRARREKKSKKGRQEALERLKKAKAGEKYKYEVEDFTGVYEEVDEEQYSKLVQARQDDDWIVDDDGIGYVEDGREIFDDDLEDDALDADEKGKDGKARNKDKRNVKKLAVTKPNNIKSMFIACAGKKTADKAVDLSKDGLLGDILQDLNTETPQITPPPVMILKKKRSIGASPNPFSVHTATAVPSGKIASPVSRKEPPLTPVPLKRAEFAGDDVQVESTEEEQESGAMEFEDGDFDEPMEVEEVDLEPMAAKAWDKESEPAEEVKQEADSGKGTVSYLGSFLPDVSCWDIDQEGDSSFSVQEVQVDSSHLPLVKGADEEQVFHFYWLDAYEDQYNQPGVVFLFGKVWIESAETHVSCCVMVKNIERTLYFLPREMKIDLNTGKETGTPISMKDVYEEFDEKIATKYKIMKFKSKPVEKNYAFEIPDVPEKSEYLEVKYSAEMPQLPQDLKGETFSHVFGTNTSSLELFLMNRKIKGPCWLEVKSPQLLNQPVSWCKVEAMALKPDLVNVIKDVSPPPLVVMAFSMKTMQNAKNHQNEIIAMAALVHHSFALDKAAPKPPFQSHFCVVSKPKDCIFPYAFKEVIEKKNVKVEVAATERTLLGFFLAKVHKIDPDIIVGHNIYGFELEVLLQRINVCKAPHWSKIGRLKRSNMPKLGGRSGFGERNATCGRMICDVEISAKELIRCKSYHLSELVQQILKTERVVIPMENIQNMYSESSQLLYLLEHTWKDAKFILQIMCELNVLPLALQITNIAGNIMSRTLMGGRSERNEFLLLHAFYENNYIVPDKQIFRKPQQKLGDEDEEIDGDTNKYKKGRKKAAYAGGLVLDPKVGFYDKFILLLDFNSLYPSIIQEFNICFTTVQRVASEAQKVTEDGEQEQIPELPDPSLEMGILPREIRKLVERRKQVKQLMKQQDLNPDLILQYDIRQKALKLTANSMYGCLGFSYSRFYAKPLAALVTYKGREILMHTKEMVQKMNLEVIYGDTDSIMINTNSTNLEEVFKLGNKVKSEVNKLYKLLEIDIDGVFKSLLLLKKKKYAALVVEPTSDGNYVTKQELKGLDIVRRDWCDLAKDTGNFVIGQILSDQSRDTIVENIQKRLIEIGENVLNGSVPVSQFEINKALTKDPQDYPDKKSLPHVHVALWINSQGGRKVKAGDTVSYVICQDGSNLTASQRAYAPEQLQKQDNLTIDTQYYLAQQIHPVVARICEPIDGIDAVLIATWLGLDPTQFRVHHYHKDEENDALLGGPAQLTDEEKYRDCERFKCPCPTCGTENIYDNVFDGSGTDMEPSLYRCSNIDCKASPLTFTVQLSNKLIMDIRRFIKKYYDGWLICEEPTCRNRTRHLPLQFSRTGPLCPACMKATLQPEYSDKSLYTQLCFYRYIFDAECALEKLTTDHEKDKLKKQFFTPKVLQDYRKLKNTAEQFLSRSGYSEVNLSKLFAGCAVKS
T1 sequence (P00441 whole entry): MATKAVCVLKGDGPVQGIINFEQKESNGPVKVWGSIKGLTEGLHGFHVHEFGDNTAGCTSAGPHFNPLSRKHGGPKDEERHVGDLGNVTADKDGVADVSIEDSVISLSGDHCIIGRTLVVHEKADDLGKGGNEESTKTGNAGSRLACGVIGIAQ

With `COc1cc2c(cc1O)CC[C@@H]1[C@@H]2CC[C@]2(C)[C@@H](O)CC[C@@H]12` [2-ME, 1,3,5(10)-estratrien-2,3,17b-triol 2 methylether] the IC50 (ML-1 [1]) was < 1 µM, the IC50 (CEM) was < 1 µM and the IC50 (Raji) was < 1 µM. For the same molecule, the IC50 (K562) was < 1 µM, the IC50 (HL-60 [2]) was < 1 µM and the cell survival (normal lymphocytes [3]) was “no apparent loss of cell survival”. For the same molecule, the cell survival (ALL cells) was 56.5%, the “apoptotic morphology and nucleosomal DNA fragmentation” value (ML-1 [4]) was “Typical apoptotic morphology and nucleosomal DNA fragmentation were observed” and the “apoptotic morphology and nucleosomal DNA fragmentation” value (HL-60 [5]; 1 μM, HL-60 (p53−)) was “Typical apoptotic morphology and nucleosomal DNA fragmentation were observed”. For the same molecule, the “DNA fragmentation (apoptosis) in HL-60 cells” value (HL-60 [5]; estrogen derivatives, FIG. 20) was “induced DNA fragmentation”, the “apoptosis in primary CML cells” value [6] was “induced apoptosis” and the “nucleosomal DNA fragmentation” value (normal lymphocytes [7]) was “no nucleosomal DNA fragmentation was detected”. For the same molecule, the “expression of CuZnSOD mRNA, % of the control” value (CuZnSOD (SOD1) mRNA) was 236%, the “increase of SOD1 protein” value (SOD1 protein) was 74% and the “O2^− increase” value (CLL cells [8]; CLL cells, 30 μM) was 226±37%. The “cellular O2^−” value (CLL cells [8]; primary leukemia cells from a CLL patient, 2-ME alone) was “significant accumulation of cellular O2^−”, the H2O2 production (ML-1 [9]) was “concentration-dependent decrease of H2O2” and the IC50 (human CuZnSOD) was ~20 µM. For the same molecule, the IC50 (E. coli MnSOD) was ~20 µM, the IC50 (SOD) was ~20 µM and the “effect on xanthine oxidase” value (xanthine oxidase) was “little effect”. The “effect on DNA polymerase α” value (human DNA polymerase α) was “little effect”, the concentrations inducing apoptosis (leukemia cell lines) was 1 to 10 µM and the “intracellular concentrating of drug” value [10] was “approximately 10 fold”. For the same molecule, the cellular drug metabolites [11] was “no significant drug metabolites”, the cell survival (CLL cells [12]; 30 μM, CLL cells, 31 patients) was 32.7% and the “sensitivity to single agent” value (CLL cells [12]; 2-ME-resistant CLL cells) was “insensitive to either drug alone”. For the same molecule, the “toxicity to CLL cells versus normal lymphocytes” value (CLL cells [12]; 10 and 30 μM, p<0.0001) was “significantly more toxic to CLL cells than to normal lymphocytes”, the “sensitivity to single agent” value (CLL cells [12]; CLL cells of the two sensitive patients) was “relatively sensitive” and the “cell survival in CLL cells” value (CLL cells [12]; FIGS. 6-8, MTT 72-96 h) was “substantial loss of cell survival”. For the same molecule, the cell survival (CLL cells [12]; primary leukemia cells from a CLL patient, 2-ME alone (FIG. 32)) was “loss of cell survival”, the rhodamine-123 fluorescence intensity (HL-60 cells; 14 h exposure, control 70-100 arbitrary units) was 20-40 units and the rhodamine-123 retention (HL-60 cells; by 22 h) was “almost all the cells had lost their ability to retain rhodamine-123”. The rhodamine-123 retention (HL-60 cells; first 6 h of incubation) was “no obvious loss of dye retention”.
